Assay results published in patent US11980616B2, “Treating liver disease by selectively eliminating senescent cells” (Buck Institute for Research on Aging, priority 2014, dated 2024).

Assays:
[1] = tested on: DNA damage response proteins in senescent IMR90 cells; assay: Immunoblot of DNA damage response proteins in irradiated senescent IMR90 cells; type: cell-based, human
Method: Primary human fibroblast (IMR90) cells were induced to senesce by applying 10 Gy of irradiation. Seven days after irradiation (Day 0), cells were treated with 10 μM Nutlin-3a or vehicle (DMSO) for nine days (Day 9). The drug or vehicle was refreshed every three days. Drug/vehicle was removed at Day 9 and the cells were cultured for an additional six days in media without drug or DMSO, changing media every three days. Cells were collected at Day 0 (non-senescent cells), Day 9, Day 12, and Day 15, and protein extracted and processed for immunoblotting (Western blotting). Two samples were processed at each time point; the results are provided for one sample in FIG. 14.

[2] = tested on: non-senescent lung fibroblasts (Non Sen IMR90); assay: Cell count toxicity assay, non-senescent IMR90; type: cell-based, human; details: 0, 2.5, 10 μM, 9 days
Method: Foreskin fibroblast cell lines HCA2 and BJ, lung fibroblast cell line IMR90, and mouse embryonic fibroblasts were seeded in six-well plates and induced to senesce with 10 Gy of ionizing radiation (IR) or a 24 hr treatment with doxorubicin (Doxo). Senescent phenotype was allowed to develop for at least 7 days, at which point a cell count was made to determine the baseline number of cells. Nutlin-3a treatment was then initiated for a period of at least 9 days. Media alone or media with drug as appropriate was refreshed at least every three days. At the end of the assay time period, cells are counted. Each condition was seeded in three plate wells and counted independently. Initial cell count serves as a control to determine the induction of senescence, as compared to the last day count without nutlin treatment. Initial non-senescent cell count serves as a proxy to determine Nutlin-3a toxicity.
Non-senescent foreskin fibroblasts (HCA2), lung fibroblasts (IMR90), and mouse embryonic fibroblasts (MEF) were treated with varying concentrations (0, 2.5 μM, and 10 μM) of Nutlin-3a for a period of 9 days to assess Nutlin-3a toxicity. Cell counts were taken at the start (NS start) and end of Nutlin-3a treatment. The difference between counts of cells not treated with Nutlin-3a on day 9 (NS 0) and cell counts determined at day zero (NS start) reflects the cell growth over the indicated time period. […]

[3] = tested on: doxorubicin-induced senescent cells in p16-3MR mice; assay: Removal of doxorubicin-induced senescent cells in p16-3MR transgenic mice; type: in vivo, mouse
Method: The capability of Nutlin-3a to remove senescent cells in vivo was determined in transgenic p16-3MR mice (see, e.g., International Application Publication No. WO2013/090645). The transgenic mouse comprises a p16^Ink4a promoter operatively linked to a trimodal fusion protein for detecting senescent cells and for selective clearance of senescent cells in these transgenic mice, which is illustrated in FIG. 7. […] 3MR (tri-modality reporter) is a fusion protein containing functional domains of a synthetic Renilla luciferase (LUC), monomeric red fluorescence protein (mRFP), and truncated herpes simplex virus (HSV)-1 thymidine kinase (tTK), which allows killing by ganciclovir (GCV) (see, e.g., Ray et al., Cancer Res. 64:1323-30 (2004)). The 3MR cDNA was inserted in frame with p16 in exon 2, creating a fusion protein containing the first 62 amino acids of p16, but not a full-length wild-type p16 protein. […] The p16^Ink4a gene promoter (approximately 100 kilobase pairs) was introduced upstream of a nucleotide sequence encoding a trimodal reporter fusion protein. Alternatively, a truncated p16^Ink4a promoter may be used (see, e.g., Baker et al., Nature, supra; International Application Publication No. WO2012/177927; Wang et al., supra). Thus, the expression of 3MR is driven by the p16^Ink4a promoter in senescent cells only. The detectable markers, LUC and mRFP permitted detection of senescent cells by bioluminescence and fluorescence, respectively. […] Transgenic founder animals, which have a C57B16 background, were established and bred using known procedures for introducing transgenes into animals (see, e.g., Baker et al., Nature 479:232-36 (2011)).
Female C57/BL6 p16-3MR mice were randomized into doxorubicin+Nutlin-3a treated or doxorubicin only treated groups (see FIG. 6). Senescence was induced by intraperitoneal administration of doxorubicin at 10 mg/kg to the mice ten days prior to administration of Nutlin-3a (Day −10). Nutlin-3a (25 mg/kg) was administered intraperitoneally daily from day 10 to day 24 post-doxorubicin treatment (Group=9 mice). Control mice (doxorubicin treated) were injected with equal volumes of PBS (Group=3 mice). Luminescence imaging (Xenogen Imaging system) was performed at Day 0 (i.e., 10 days post-doxorubicin treatment) as a baseline for each mouse (100% intensity).
Luminescence imaging of the mice was performed on day 7, 14, 21, 28, and 35 following the initiation of Nutlin-3a treatment. Reduction of luminescence (L) was calculated as: L=(Imaging post-Nutlin-3a treatment)/(Baseline Imaging)[…]. If L is greater than or equal to 100%, the number of senescent cells was not reduced. If L is less than 100%, then the number of senescent cells was reduced. Every mouse was calculated independently, and background was subtracted from each sample.
Experiments were performed to determine the effect of Nutlin-3a treatment on expression of genes associated with senescence. Groups of female C57/BL6 p16-3MR were treated as described above. Three weeks after the end of Nutlin-3a treatment (day 35), the doxorubicin treated mice (control) (N=3) and doxorubicin+Nutlin-3a-treated mice (N=6) were sacrificed. […]
RNA was analyzed for mRNA levels of endogenous senescence markers (p21, p16^INK4a (p16), and p53) and SASP factors (mmp-3 and IL-6) relative to actin mRNA (control for cDNA quantity) using the Roche Universal Probe Library for real-time PCR assay. […]

[4] = 10 μM, decreased when the drug was removed

## COc1ccc(C2=N[C@@H](c3ccc(Cl)cc3)[C@@H](c3ccc(Cl)cc3)N2C(=O)N2CCNC(=O)C2)c(OC(C)C)c1 [Nutlin-3a]
[1]; 10 μM, after treatment and after drug removal
  Phosphorylation of H2AX (γH2AX): declining levels of phosphorylation
[1]; 10 μM, also after drug removal
  Phosphorylation of the kinase ATM (pATM S1981): lower
[1]; [4]
  Level of MDM2: elevated
  Level of p21: elevated
  Level of p53: elevated
[1]; after drug is removed
  Level of IkBa: approaches the level of IkBa in non-senescent cells
[2]
  Proliferation (percent growth): reduces proliferation
  Toxicity (cell number vs starting level): non-toxic
[3]; 25 mg/kg i.p. daily day 10 to 24 post-doxorubicin
  Luminescence associated with doxorubicin-induced senescence (% of baseline): reduced luminescence
[3]; 25 mg/kg i.p. daily, at day 14, day 28 and day 35
  Decrease in luminescence: statistically significant decrease
[3]; day 35, vs doxorubicin alone
  γH2AX positive cells (DNA damage) in lung sections: reduced the number of cells with DNA damage
[3]; skin and fat, day 35, vs doxorubicin alone
  mRNA of SASP factors (mmp-3, IL-6) and senescence markers (p21, p16, p53): reduced expression
[3]; three weeks after treatment, vs doxorubicin alone
  Senescence-associated β-gal intensity in fat biopsies: reduced senescence-associated β-gal intensity
